Data on five compounds can be found in patent publication US6043373A, “Heterocycle-fused thiazole derivatives” (Yungjin Pharmaceutical Co., Ltd., priority 1995, dated 2000).

One experiment addresses T1, H^+ /K^+ ATPase (Oryctolagus cuniculus, UniProt P27112).
T1 construct: from tissue; host or cells: rabbit gastric mucosa, membrane vesicles (differential and Ficoll density gradient centrifugation)
The experiment in a line: Inhibition of H^+ /K^+ ATPase (vesicles from gastric mucose membrane of rabbit). The class given is biochemical. As to conditions: pH 7.4, 37° C., 30 minutes preincubation, 15 minutes incubation; read-out: Enzyme Inhibition (IC50). As for the experimental part:
Inhibition of H^+ /K^+ ATPase, a proton carrying enzyme, was measured by following the procedure of Saccomani et al. [Biochim. Biophy. Acta., 465, 311-330 (1977)]. Thus, a homogenate of the gastric mucose membrane of rabbit was used to prepare vesicles containing H^+ /K^+ ATPase by employing differential centrifugation and discontinuous density gradient centrifugation in Ficoll. The vesicles containing the enzyme were preincubated in a solution (0.5 ml) containing 1×10^-4 M, 1×10^-5 M, 1×10^-6 M, or 1×10^-7 M of the inventive compound (Example 21) and 5 mM of imidazole buffer (pH 7.4) at a temperature of about 37° C. for about 30 minutes. omeprazole was used as a control. A solution containing 2 mM of magnesium chloride, 40 mM of imidazole buffer (pH 7.4), 10 mM of potassium chloride and 10 mM of ATP was added to the mixture. The resulting mixture was incubated at 37° C. for 15 minutes and the reaction was terminated by adding 1 ml of ice-cold 22% solution of trichloroacetic acid. Enzyme activity was calculated by measuring the separated inorganic phosphate by following the method of Fiske and Subbarow [J. Biol. Chem., 66, 375-440 (1925)].

The subject of another experiment is Gastric Secretion. Kind of experiment: Inhibition of gastric secretion (Shay pylorus ligation). The class given is in vivo, male Sprague-Dawley rats. As to conditions: rat, intraduodenal. As for the experimental part: Inhibition of gastric secretion was measured by following the procedure of Shay ligation (Gastroenterology, 1954, 26, 903). Thus, male Sprague-Dawleyrats weighing 180-200 g were starved for 24 hours and their pylorus were ligated. Then, the inventive compounds (Examples 1, 13 and 17) or omeprazole as a positive control was administered into duodenum. Four hours later, the stomach was removed, and the acidity and amount of gastric juice were measured. By comparing the measured values with the acidity and amount of the gastric juice of the stomach of the reference group to which no test compound was administered, the inhibition of gastric secretion was calculated.

Experiment [1] relates to Acetic Acid-Induced Ulcer. Kind of experiment: Inhibition of Acetic Acid-Induced Ulcer (healing). The experiment is classed as in vivo, male Sprague-Dawley rats. As to conditions: rat, oral, 30 mg/kg, for 10 days. As for the experimental part:
Inhibition activity of the inventive compound on-the acetic acid-induced ulcer was evaluated by using male Sprague-Dawley rats. Thus, rats were starved for 5 hours prior to carrying out the experiment.
20 Microliter of 30% acetic acid was injected into the submucosal layer of the stomach using a microsyringe to induce a circular ulcer on the stomach. Various doses of the inventive compounds (Examples 1 and 17) or omeprazole as a positive control were orally administered for 10 days, and the healing of ulcer by the action of the test compounds were observed. The percentages of the healing of the ulcer were calculated by comparing them with that of reference group.

Another experiment deals with Mepirizole-Induced Ulcer. Kind of experiment: Inhibition of Mepirizole-Induced Ulcer (duodenum). Particulars: rat, oral, 30 minutes before mepirizole (250 mg/kg); read-out: Anti-ulcer activity (ED50), Mepirizole. The class given is in vivo, male Sprague-Dawley rats. As for the experimental part:
Inhibition activity of the inventive compounds on the mepirizole-induced ulcers was measured by using male Spraque-Dawley rats weighing 200-230 g. Thus, rats were not starved, and the inventive compounds (Examples 1 and 17) or omeprazole as a positive control was orally administered. Thirty minutes later, mepirizole suspended in 1% CMC (250 mg/kg) was orally administered. […], the duodena were removed. The degree of the ulcer thereof was measured. By comparing the measured values with the degree of the ulcer of the duodena of the reference group to which no test compound was administered, the effective deses (ED50) of the test compounds which inhibit the ulcer by 50% were calculated and are shown in Table 3.

Another experiment deals with Stress-Induced Ulcer. Kind of experiment: Inhibition of Stress-Induced Ulcer (water immersion). The experiment is classed as in vivo, male Sprague-Dawley rats. Particulars: rat, oral, 30 minutes prior to immersion in water; read-out: Anti-ulcer activity (ED50), Stress. As for the experimental part: Inhibition activity of the inventive compound on the stress-induced ulcer was evaluated by using male Sprague-Dawley rats. Thus, rats were starved for 24 hours prior to carrying out the experiment. Stress is an important factor for causing gastric lesions, and was applied to rats by immersing them in water. Thirty minutes prior to immersing rats into water, the inventive compounds (Examples 1 and 17) or omeprazole as a positive control was orally administered, and the inhibitions of ulcer by the action of the test compounds were observed.

The test system of the next experiment is Ethanol-Induced Lesions. Kind of experiment: Inhibition of Ethanol-Induced Lesions. The experiment is classed as in vivo, male Sprague-Dawley rats. Particulars: rat, oral, 30 minutes before absolute ethanol (5 ml/kg); read-out: Anti-ulcer activity (ED50), Ethanol. As for the experimental part: Inhibition activity of the inventive compound on the ethanol-induced ulcer was measured by using male sprague-Dawley rats weighing 180-200 g. Thus, rats were starved for 24 hours, and the inventive compound (Examples 1 and 17) or omeprazole as a positive control was orally administered. Thirty minutes later, absolute ethanol (5 ml/kg was orally administered. 1.5 hours later, the stomach was removed, and the degree of the wound of the stomach was measured. By comparing the measured values with the degree of the lesion of the stomach the reference group to which no test compound was administered, the effective dose (ED50) of the test compounds which inhibit the lesion by 50% were calculated and are shown in Table 3.

Experiment [2] relates to Indomethacin-Induced Lesions. Kind of experiment: Inhibition of Indomethacin-Induced Lesions. The class given is in vivo, male Sprague-Dawley rats. Particulars: rat, oral, before 35 mg/kg indomethacin s.c.; read-out: Anti-ulcer activity (ED50), Indomethacin. As for the experimental part: Inhibition activities of the inventive compounds on the indome][…]-induced lesions was measured by using male Sprague-Dawley rats. Thus, rats were starved for 48 hours and prohibited from being supplied with water for 2 hours, and 35 mg/kg of indomethacin (Sigma Co.) as a causative of gastric lesions was subcutaneously administered. Before Indomethacine treatment, the inventive compounds (Examples 1 and 17) or omeprazole as a positive control was orally administered, and the inhibitions of lesions by the action of the test compounds were observed.

T1 sequence (P27112 2-1035 limits assumed): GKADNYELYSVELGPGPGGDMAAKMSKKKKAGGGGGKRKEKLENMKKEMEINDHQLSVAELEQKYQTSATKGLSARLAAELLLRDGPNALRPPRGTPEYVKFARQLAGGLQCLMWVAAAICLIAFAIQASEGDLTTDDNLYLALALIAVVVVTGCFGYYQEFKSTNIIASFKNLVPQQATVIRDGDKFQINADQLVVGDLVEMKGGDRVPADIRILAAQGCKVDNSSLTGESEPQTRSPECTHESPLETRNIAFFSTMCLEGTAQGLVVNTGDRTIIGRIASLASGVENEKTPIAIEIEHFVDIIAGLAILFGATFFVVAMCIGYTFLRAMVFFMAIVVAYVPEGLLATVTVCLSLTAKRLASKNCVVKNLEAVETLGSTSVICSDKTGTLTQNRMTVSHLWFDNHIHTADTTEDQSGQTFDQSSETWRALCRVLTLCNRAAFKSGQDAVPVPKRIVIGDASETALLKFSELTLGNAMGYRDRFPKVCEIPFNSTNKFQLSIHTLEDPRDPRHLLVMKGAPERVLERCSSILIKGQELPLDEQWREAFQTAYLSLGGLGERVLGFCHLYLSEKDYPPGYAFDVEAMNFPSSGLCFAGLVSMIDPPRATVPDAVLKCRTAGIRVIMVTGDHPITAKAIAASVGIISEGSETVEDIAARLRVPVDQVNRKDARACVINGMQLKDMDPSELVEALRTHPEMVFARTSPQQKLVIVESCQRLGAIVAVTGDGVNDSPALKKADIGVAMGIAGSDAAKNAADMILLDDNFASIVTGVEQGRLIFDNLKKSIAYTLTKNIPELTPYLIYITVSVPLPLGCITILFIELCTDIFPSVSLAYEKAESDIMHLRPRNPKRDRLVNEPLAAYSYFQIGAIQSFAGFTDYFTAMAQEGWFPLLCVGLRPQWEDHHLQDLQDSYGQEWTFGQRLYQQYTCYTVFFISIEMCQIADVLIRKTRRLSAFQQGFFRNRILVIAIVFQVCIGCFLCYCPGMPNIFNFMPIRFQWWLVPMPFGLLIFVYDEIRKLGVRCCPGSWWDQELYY
T1 sequence (P18597 whole entry partner): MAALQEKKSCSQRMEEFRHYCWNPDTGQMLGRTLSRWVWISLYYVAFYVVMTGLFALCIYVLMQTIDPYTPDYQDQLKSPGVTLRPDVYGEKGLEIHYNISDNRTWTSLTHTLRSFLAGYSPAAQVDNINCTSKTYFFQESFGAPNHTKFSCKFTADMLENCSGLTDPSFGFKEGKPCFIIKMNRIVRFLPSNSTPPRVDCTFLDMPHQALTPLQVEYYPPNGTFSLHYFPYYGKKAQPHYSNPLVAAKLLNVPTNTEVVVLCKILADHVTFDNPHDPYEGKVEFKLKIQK

As to `CNc1nc2c(s1)CCc1c-2sc2nc(-c3ccccc3)cn12` [Example 2], the IC50 on H^+ /K^+ ATPase was 21.6 µM.

In the case of `Br.Br.Nc1nc2c(s1)CCc1c-2sc2nc3ccccc3n12` [Example 13, 2-amino-4,5-dihydrobenzimidazo[2,1-b]thiazolo[5,4-g]benzothiazole dihydrobromide], the IC50 at H^+ /K^+ ATPase worked out at 200 µM. Also, in the experiment with Gastric Secretion (25 mg/kg, 4 hours), the “Gastric juice Secretion Inhibition (percent)” value worked out at 34.0%.

Turning to `Nc1nc2c(s1)CCc1nc3ccccn3c1-2` [Example 17, 2-amino-4,5-dihydropyrido[1,2-a]thiazolo [5,4-g]benzimidazole], the “Anti-ulcer activity, Acetic acid: Percentage of healing” value in experiment [1] is listed as 31.59%. Also, the ED50 in the experiment on Mepirizole-Induced Ulcer came out at 18.7 mg/kg; in the experiment with Stress-Induced Ulcer, 17.6 mg/kg; in the experiment on Ethanol-Induced Lesions, 2.91 mg/kg; in the experiment on Gastric Secretion (4 hours after pylorus ligation, read-out: Gastric juice Secretion Inhibition (ED50)), 15.4 mg/kg; in experiment [2] it was 4.68 mg/kg. Besides, the IC50 at H^+ /K^+ ATPase was 49 µM.

For `NC(N)=Nc1nc2c(s1)-c1nc(N)sc1CC2` [Example 18], the IC50 on H^+ /K^+ ATPase was determined as 100 µM.

`COc1ccc2[nH]c([S+]([O-])Cc3ncc(C)c(OC)c3C)nc2c1` (stereo not shown) [Omeprazole, reference compound]: in experiment [1], the “Anti-ulcer activity, Acetic acid: Percentage of healing” value was found to be 27.1%. Also, the ED50 came out at 2.8 mg/kg with Mepirizole-Induced Ulcer, 4.4 mg/kg in the experiment with Stress-Induced Ulcer, 17.1 mg/kg in the experiment on Ethanol-Induced Lesions and 1.2 mg/kg in experiment [2].
